Measured values published in PubChem BioAssay AID1996.
Values after ≈ are worked out from the molar mass of the structure shown.

Details: buffer; pH 7.4; 200.0 µM
Molecule `Cl.OCCCNCc1ccc(-c2ccccc2)cc1` has a solubility kinetic of over 41.7 µg/mL.
With `Cc1cccc(C(=O)O/N=C(\N)c2ccc(Cl)cc2)c1` the solubility kinetic was under 0.3 µg/mL.
`O=C(CCn1c(=S)[nH]c2ccccc2c1=O)N1CCCCC1` showed a solubility kinetic of 9.1 µg/mL (≈ 28.7 µM).
Molecule `NS(=O)(=O)c1cccc(Nc2nc3ccccc3nc2NS(=O)(=O)c2ccc(Cl)cc2)c1` has a solubility kinetic of 7.4 µg/mL (≈ 15.1 µM).
Molecule `CSc1ncc(C(=O)Nc2cccc(C)c2C)c(C)n1` has a solubility kinetic of 17 µg/mL (≈ 59.2 µM).
Molecule `Fc1ccc(CNC2CCN(Cc3ccccc3)CC2)cc1` has a solubility kinetic of 35.7 µg/mL (≈ 120 µM).
For `O=C(NCCN1CCCCC1)c1cc(Cl)ccc1Cl`, the solubility kinetic was 39.8 µg/mL (≈ 132 µM).
Work on `CCn1c(C)nc([N+](=O)[O-])c1C(=O)O` yielded a solubility kinetic of over 29.9 µg/mL.
Molecule `O=C1CSC(c2cccnc2)N1c1cccc(Cl)c1` (centres undefined) has a solubility kinetic of 43.3 µg/mL (≈ 149 µM).
Molecule `OCCC1CCCCN1CC(O)COCc1ccc(Cl)cc1` (centres undefined) has a solubility kinetic of 45.1 µg/mL (≈ 138 µM).
For `COc1ccc(CC(=O)NCc2ccc(F)cc2)cc1S(=O)(=O)N1CCOCC1`, the solubility kinetic was over 63.4 µg/mL.
Work on `Cc1nc2cc(NC(=O)Nc3cccc([N+](=O)[O-])c3)ccc2n1C` yielded a solubility kinetic of 0.6 µg/mL (≈ 1.84 µM).
For `Cc1[nH]ccc(=O)c1Cc1c(Cl)cccc1Cl`, the solubility kinetic was over 40.2 µg/mL.
In the case of `CCN1CCN(c2nc(N(C)c3ccccc3)nc(N)c2[N+](=O)[O-])CC1`, the solubility kinetic is reported as 49.3 µg/mL (≈ 138 µM).
Work on `Cc1cccc(Oc2nc3c(c(=O)n(C)c(=O)n3C)n2C)c1` yielded a solubility kinetic of over 45 µg/mL.
`COc1ccccc1NC(=S)N1CC(C)(C)C1=O` gave a solubility kinetic of 3 µg/mL (≈ 11.3 µM).
In the case of `Cc1cccc2sc(NC(=O)CCn3cccc3)nc12`, the solubility kinetic is reported as 5.7 µg/mL (≈ 20 µM).
With `Cc1cccn2c(=O)c(C=O)c(Cl)nc12` the solubility kinetic was over 33.4 µg/mL.
`COC(=O)c1ccccc1NC(=O)COC(=O)/C=C/c1cccs1` showed a solubility kinetic of 1.8 µg/mL (≈ 5.21 µM).
With `CN(C)/N=C/c1ccc(N2CCOCC2)cc1` the solubility kinetic was over 35 µg/mL.
For `CC(OC(=O)c1ccco1)C(=O)Nc1ncc(Cl)cc1Cl` (centres undefined), the solubility kinetic was 49.2 µg/mL (≈ 149 µM).
Work on `CCOc1ccc(N2CC(C(=O)NCc3ccco3)CC2=O)cc1` (centres undefined) yielded a solubility kinetic of over 49.3 µg/mL.
`Cn1c(N)c(C(=O)COC(=O)CNC(=O)c2ccccc2)c(=O)n(C)c1=O` showed a solubility kinetic of over 56.2 µg/mL.
`COc1ccc(/C=C/C(=O)O)cc1S(=O)(=O)NCC1CCCO1` (centres undefined) showed a solubility kinetic of 41.3 µg/mL (≈ 121 µM).
Molecule `Cc1ccc(NS(=O)(=O)c2ccc(C)c(NC(=S)NCCN3CCOCC3)c2)c(C)c1` has a solubility kinetic of over 69.4 µg/mL.
In the case of `COc1cccc(C(=S)N2CCCC2)c1OC`, the solubility kinetic is reported as 35.3 µg/mL (≈ 140 µM).
With `Clc1ccccc1OCCCCN1CCCCC1` the solubility kinetic was 39.9 µg/mL (≈ 149 µM).
With `COC(=O)/C=C1\SC(=Nc2ccc(OC)cc2)NC1=O` the solubility kinetic was 1.9 µg/mL (≈ 6.5 µM).
With `Cc1nc(/C(N)=N/OC(=O)c2ccc(Cl)cc2)c(C(F)(F)F)o1` the solubility kinetic was 17 µg/mL (≈ 48.9 µM).
With `C1=NCCc2c1[nH]c1ccccc21.[O-][Cl+3]([O-])([O-])O` the solubility kinetic was over 40.6 µg/mL.
`O=C(Cc1cccs1)N1CCN(c2cccc(Cl)c2)CC1` gave a solubility kinetic of 42.9 µg/mL (≈ 134 µM).
`Cn1c(SCC(=O)NCc2ccco2)nnc1C1CC1` showed a solubility kinetic of over 43.9 µg/mL.
With `Cc1nc(N2CCN(c3ccc(Cl)cc3)CC2)[nH]c(=O)c1C` the solubility kinetic was 1.6 µg/mL (≈ 5.02 µM).
In the case of `CCN(C(=S)NC(=O)C1CC1)c1ccccc1`, the solubility kinetic is reported as over 37.3 µg/mL.
In the case of `CN(CC(=O)Nc1cccc(F)c1)C(=O)COc1ccc2c(c1)CCC2`, the solubility kinetic is reported as 1.9 µg/mL (≈ 5.33 µM).
Work on `Nc1ncnc(SCc2c(F)cccc2Cl)n1` yielded a solubility kinetic of 2.8 µg/mL (≈ 10.3 µM).
With `CC(Sc1nnc(C(F)(F)F)n1C)C(=O)Nc1ccc(N2CCOCC2)cc1` (centres undefined) the solubility kinetic was over 62.3 µg/mL.
`CC(=O)c1cccc(S(=O)(=O)Nc2c(C)nn(C)c2C)c1` gave a solubility kinetic of over 46.1 µg/mL.
For `COc1ccc(/C=C2\SC(=O)N(CC(=O)Nc3cccc(C)c3)C2=O)cc1O`, the solubility kinetic was 0.6 µg/mL (≈ 1.51 µM).
With `O=C(NCC(=O)N1CCOCC1)c1ccc(Br)cc1` the solubility kinetic was over 49.1 µg/mL.
For `NC1=NC(=O)/C(=C\c2ccsc2)S1`, the solubility kinetic was 28.6 µg/mL (≈ 136 µM).
Work on `C[C@](N)(Cc1ccc(O)c(O)c1)C(=O)O` yielded a solubility kinetic of over 31.7 µg/mL.
Work on `CCN(CC)c1ccc(N=CN2CCOCC2)cc1` yielded a solubility kinetic of 35.9 µg/mL (≈ 137 µM).
In the case of `Cc1cc(NC(=O)C2CC(=O)N(c3ccccc3Cl)C2)no1` (centres undefined), the solubility kinetic is reported as over 48 µg/mL.
Molecule `CCNc1ccc(S(=O)(=O)NCCN(C)C)cc1[N+](=O)[O-]` has a solubility kinetic of 42.4 µg/mL (≈ 134 µM).
`CCc1nc2ccccc2c(C(=O)NCc2ccccc2)c1C` showed a solubility kinetic of 33.9 µg/mL (≈ 111 µM).
Molecule `CCC1CCCCN1C(=O)CCCc1ccccc1` (centres undefined) has a solubility kinetic of 33.2 µg/mL (≈ 128 µM).
For `COc1ccc(NC(=S)NCCc2ccccc2)c(C)c1`, the solubility kinetic was 8.5 µg/mL (≈ 28.3 µM).
In the case of `CN1CCC(NC(=S)Nc2cccc([N+](=O)[O-])c2)CC1`, the solubility kinetic is reported as over 44.2 µg/mL.
`CC1=C(C(=O)O)N2C(=O)C(NC(=O)c3ccccc3Cl)C2SC1` (centres undefined) showed a solubility kinetic of over 52.9 µg/mL.
`Cc1ccc2nc(NCC(N)=O)nc(-c3ccccc3)c2c1` gave a solubility kinetic of 1.4 µg/mL (≈ 4.79 µM).
`O=C1CN(C(=O)COC(=O)CCc2ccccc2O)c2ccccc2N1` showed a solubility kinetic of over 53.2 µg/mL.
With `CCCCC(=O)Nc1cc(C)c(NC(=O)c2ccco2)cn1` the solubility kinetic was over 45.2 µg/mL.
Molecule `CC(=O)c1c(COC(=O)c2ccc(F)cc2)nc2ccccc2[n+]1[O-]` has a solubility kinetic of 2.4 µg/mL (≈ 7.05 µM).
Molecule `Br.CC(C)(C)c1cc(C2=CSC3=NCCN23)cc(C(C)(C)C)c1O` has a solubility kinetic of 10.7 µg/mL.
With `CCN(CC)CCn1c(=S)[nH]c2ccc(Br)cc2c1=O` the solubility kinetic was over 53.4 µg/mL.
`COc1cccc(COc2ncnc3sccc23)c1` showed a solubility kinetic of 37.2 µg/mL (≈ 137 µM).
For `O=C(CN1CCC(NC(=O)C2CC2)CC1)Nc1ccccc1[N+](=O)[O-]`, the solubility kinetic was 46.6 µg/mL (≈ 135 µM).
`O=c1ccc2ccccc2n1Cc1cccc(F)c1` gave a solubility kinetic of over 38 µg/mL.
